Test results taken from patent US9757350B2, “Small molecule inhibitors of replication protein A that also act synergistically with cisplatin” (Indiana University Research and Technology Corp., priority 2010, dated 2017).

What was measured:
Format in all cases: cell-based
A549 cells = test: Crystal violet cell viability assay, A549; conditions: 48 hours
Experimental: Referring now to FIG. 11A. Gel showing effect of MCI13E on DNA-RPA binding. […] Cytotoxicity was analyzed via crystal violet analysis as described in “methods” 48 hours following MCI13E treatment. Data represent the average and standard deviation of four replicate experiments with each replicate containing triplicate determinations and the circles represent data from H460 cells and squares A549 cells. Referring now to FIG. 11C. Graph of MCI13E induced death via apoptosis in NSCLC cell lines. Cell were treated with the indicated concentrations of MCI13E for 48 hours and analyzed for the induction of apoptosis via Annexin V/PI staining Referring now to FIG. 11D. Graph of cell survival as a function of [MCI1EC]. Percent survival was calculated for each cell line using untreated cells as a control. Data presented are the average and standard deviation from four replicate experiments. […]
Cell Viability Assays—A crystal violet cell viability assay was performed to determine cytotoxicity of SMI. […] Stained cells were resuspended in 500 μl DMSO containing 1% SDS and absorbance was measured at 590 nm in a SpectraMax M5 plate reader (Molecular Devices, Sunnyvale, Calif.) and analyzed using SoftMax Pro 5.2. Percent viability is taken as an absorbance percentage against control untreated cells. […]

H460 cells = test: Crystal violet cell viability assay, H460
Experimental: Referring now to FIG. 11A. Gel showing effect of MCI13E on DNA-RPA binding. […] Cytotoxicity was analyzed via crystal violet analysis as described in “methods” 48 hours following MCI13E treatment. Data represent the average and standard deviation of four replicate experiments with each replicate containing triplicate determinations and the circles represent data from H460 cells and squares A549 cells. Referring now to FIG. 11C. Graph of MCI13E induced death via apoptosis in NSCLC cell lines. Cell were treated with the indicated concentrations of MCI13E for 48 hours and analyzed for the induction of apoptosis via Annexin V/PI staining Referring now to FIG. 11D. Graph of cell survival as a function of [MCI1EC]. Percent survival was calculated for each cell line using untreated cells as a control. Data presented are the average and standard deviation from four replicate experiments. Experiments were performed in non-small cell lung cancer (NSCLC) cell lines A549 (squares), an adenocarcinoma, and the large cell carcinoma H460 cell line (circles).
Cell Viability Assays—A crystal violet cell viability assay was performed to determine cytotoxicity of SMI. Lung cancer cell lines, A549 and H460, were plated in 24-well dishes at 5×10^4 total cells. Forty-eight hours after plating, the cells were treated for […] with variable concentrations of SMIs. The media was aspirated, cells washed with 500 μl of PBS/EDTA and stained for 10 minutes with crystal violet solution (50% Ethanol, 0.75% crystal violet). Stained cells were resuspended in 500 μl DMSO containing 1% SDS and absorbance was measured at 590 nm in a SpectraMax M5 plate reader (Molecular Devices, Sunnyvale, Calif.) and analyzed using SoftMax Pro 5.2. Percent viability is taken as an absorbance percentage against control untreated cells. Values plotted represent four separate plate replicates and each plate replicate contained three assay replicates per plate.

p21 = test: Quantitative real-time PCR of p21 mRNA; conditions: A549, versus untreated control
Experimental: Real-Time PCR—A549 cells were plated in 10 cm dishes at 1.5×10^6, allowed to adhere, and treated for 24-48 hours with cisplatin or SMIs (5 μM). Referring now to FIG. 16B, Western blot of cells treated sequentially. For sequential treatment, A549 cells were exposed to cisplatin for 24 hours followed by the addition of SMIs for another 24 hours as above. Referring now to FIG. 16A, A549 cells were treated sequentially or concurrently with cisplatin (5 μM) and MCI13E or MCI13F for 24 total hours. Lysates were probed for p53-ser15-phosphorylation or phosphorylated-ATM. GAPDH was probed as a loading control. Concurrently treated cells were incubated simultaneously with both cisplatin and MCIs for 24 hours. RNA was extracted using RNeasy minikit (Qiagen, Germantown, Md.) per manufacturer's protocol. cDNA was generated using Applied Biosystem's (ABI) High Capacity RNA-to-cDNA kit. Validated gene primer/probe sets, also from ABI, were used for Quantitative Real Time-PCR. ABI's ΔΔCT Relative Quantification methodology was used for the analyses (applied Biosystems). Data were normalized to the housekeeping gene GAPDH and calibrated to the mock treated samples. Results presented are the average of two separate cell treatments/RNA isolations with duplicate Taqman Assays per RNA sample set.
Referring now to FIG. 15A. Plot of Quantitative Real Time PCR analyses of mRNA expression changes of A549 cells treated with MCI13E, MCI13F and Cisplatin. Data represents the average of four separate Q-RT PCR Assays. Genes of interest were normalized to GAPDH transcript levels, and are presented as fold changes relative to untreated cell samples. Cisplatin treatment increases transcription of DDB2 (A). Referring now to FIG. 15B. Bar graph of P21/GAPDH measured in cells subjected to different treatment schemes. Referring now to FIG. 15C. Bar graph of XPC/GAPDH measured under different treatment regimes XPC Concurrent MCI/Cisplatin treated cells show a decrease in gene transcription when compared to cells treated with Cisplatin alone (24 hour).

A549 cell lines = test: Combination with ionizing radiation, A549; conditions: A549, data not shown
A2780 cells = test: CCK-8 cell viability assay, A2780; conditions: 24 hours of treatment
Experimental: Referring now to FIG. 13A. Cell Viability and Apoptosis of Ovarian and p53 null Lung Cancer Cell Lines. A) Ovarian cancer cell line A2780 and the p53 null lung cancer cell line, H1299, were treated with log dosing of MCI13E and viability analyzed via CCK-8 metabolic assay as described in Methods. Data is presented as cell survival which was determined as a percent of the untreated control cells and represents the average and standard deviation of triplicate experiments Referring now to FIG. 13B.
Ovarian cancer cell line, A2780, cells are difficult to use for crystal violet analysis due to their enhanced sensitivity to treatment. Therefore, the cell counting kit-8 (CCK) was used to determine the viability of A2780 cells in addition to the p53 null lung cancer cell line H1299, following a 24 hour treatment with log dosing of SMI. Cells were plated (1×10^5) in 24-well dishes and treated with inhibitor after 24 hours. After treatment media was aspirated and 1 ml of DMEM was added in addition to 100 μL of CCK-8 solution. Absorbance at 450 nm was measured over 4 hours in a SpectraMax M5 plate reader and values are presented as the percent untreated control at the two hour time point for three separate plate replicates each containing three assays per plate.

RPA = test: Western blot of endogenous RPA34 levels; conditions: western blot for RPA34
Experimental: Referring now to FIG. 18. Blot showing Endogenous Levels of RPA. Each cell line analyzed were plated (3×10^6) in 10 cm dishes and allowed to adhere overnight. Following a 5 ml PBS wash the cells were scraped into 100 μl of RIPA buffer. Cell extracts (40 μg) were loaded onto 10% SDS-PAGE gels, transferred to nitrocellulose membranes and probed for the presence of RPA34. Purified RPA was used as a positive control while GAPDH was probed for a loading control.

Row | SMILES | IC50 (A549 cells) [µM] | IC50 (H460 cells; 48 hours after exposing the cells) [µM] | IC50 (H460 cells; 48 hours, crystal violet) [µM] | p21 mRNA expression, single agent (p21) | Cell death in combination with ionizing radiation (A549 cell lines) | IC50 (A2780 cells) [µM] | Levels of endogenous RPA (RPA)
1 | CC1(C)C2CCC1(C)C(OC(=O)CI)C2 (racemic) [MCI13F, (+/−)-Isobornyl iodoacetate] | ~5 | 4 | ~5 | only slightly increases the expression level of p21 | at best, an additive increase in cell death |  | 
2 | CC1(C)C2CCC1(C)C(OC(=O)CBr)C2 (racemic) [MCI13E, (+/−)-Isobornyl bromoacetate] | ~5 |  | ~5 | only slightly increases the expression level of p21 | at best, an additive increase in cell death | ~1 | No change in the levels of endogenous RPA
